Assays:
[1] = molecular target: T1, Receptor tyrosine-protein kinase erbB-2 (Homo sapiens, UniProt P04626); experiment: Inhibition of erbB2
[2] = molecular target: T1, Receptor tyrosine-protein kinase erbB-2; experiment: Inhibition of erB2 autophosphorylation in clone 24 cells; type: cell-based
[3] = molecular target: Epidermal growth factor receptor (Homo sapiens, UniProt P00533)
[4] = Antiproliferative activity against human BT474C cells; type: functional, cell-based
KB = experiment: Antiproliferative activity against EGF-induced human KB cells; type: functional, cell-based
[5] = Protein binding in rat plasma assessed as unbound ligand at 0.4 mg/kg, iv and 1 mg/kg, po; type: ADME, organism-based
[6] = Volume of distribution at steady state in rat at 0.4 mg/kg, iv and 1 mg/kg, po; type: ADME, organism-based; details: in vivo, read-out: Vdss
[7] = Clearance in rat at 0.4 mg/kg, iv and 1 mg/kg, po; type: ADME, organism-based; details: in vivo
[8] = Half life in rat at 0.4 mg/kg, iv and 1 mg/kg, po; type: ADME, organism-based; details: in vivo
[9] = Oral bioavailability in rat at 1 mg/kg; type: ADME, organism-based; details: in vivo
[10] = Protein binding in Beagle dog plasma assessed as unbound ligand at 0.2 mg/kg, iv and 0.4 mg/kg, po; type: ADME, organism-based, Canis lupus familiaris; details: read-out: PPB
[11] = Volume of distribution at steady state in male and female Beagle dog at 0.2 mg/kg, iv and 0.4 mg/kg, po; type: ADME, organism-based, Canis lupus familiaris; details: both, in vivo, read-out: Vdss
[12] = Clearance in male and female Beagle dog at 0.2 mg/kg, iv and 0.4 mg/kg, po; type: ADME, organism-based, Canis lupus familiaris; details: both, in vivo
[13] = Half life in male and female Beagle dog at 0.2 mg/kg, iv and 0.4 mg/kg, po; type: ADME, organism-based, Canis lupus familiaris; details: both, in vivo
[14] = Oral bioavailability in male and female Beagle dog at 0.4 mg/kg; type: ADME, organism-based, Canis lupus familiaris; details: both, in vivo
P-gp = experiment: Apparent permeability from apical to basolateral side of the dog MDCK cells expressing P-gp transporter; type: ADME, cell-based, Canis lupus familiaris; details: MDCK-MDR1

Chain of Epidermal growth factor receptor (P00533 whole entry): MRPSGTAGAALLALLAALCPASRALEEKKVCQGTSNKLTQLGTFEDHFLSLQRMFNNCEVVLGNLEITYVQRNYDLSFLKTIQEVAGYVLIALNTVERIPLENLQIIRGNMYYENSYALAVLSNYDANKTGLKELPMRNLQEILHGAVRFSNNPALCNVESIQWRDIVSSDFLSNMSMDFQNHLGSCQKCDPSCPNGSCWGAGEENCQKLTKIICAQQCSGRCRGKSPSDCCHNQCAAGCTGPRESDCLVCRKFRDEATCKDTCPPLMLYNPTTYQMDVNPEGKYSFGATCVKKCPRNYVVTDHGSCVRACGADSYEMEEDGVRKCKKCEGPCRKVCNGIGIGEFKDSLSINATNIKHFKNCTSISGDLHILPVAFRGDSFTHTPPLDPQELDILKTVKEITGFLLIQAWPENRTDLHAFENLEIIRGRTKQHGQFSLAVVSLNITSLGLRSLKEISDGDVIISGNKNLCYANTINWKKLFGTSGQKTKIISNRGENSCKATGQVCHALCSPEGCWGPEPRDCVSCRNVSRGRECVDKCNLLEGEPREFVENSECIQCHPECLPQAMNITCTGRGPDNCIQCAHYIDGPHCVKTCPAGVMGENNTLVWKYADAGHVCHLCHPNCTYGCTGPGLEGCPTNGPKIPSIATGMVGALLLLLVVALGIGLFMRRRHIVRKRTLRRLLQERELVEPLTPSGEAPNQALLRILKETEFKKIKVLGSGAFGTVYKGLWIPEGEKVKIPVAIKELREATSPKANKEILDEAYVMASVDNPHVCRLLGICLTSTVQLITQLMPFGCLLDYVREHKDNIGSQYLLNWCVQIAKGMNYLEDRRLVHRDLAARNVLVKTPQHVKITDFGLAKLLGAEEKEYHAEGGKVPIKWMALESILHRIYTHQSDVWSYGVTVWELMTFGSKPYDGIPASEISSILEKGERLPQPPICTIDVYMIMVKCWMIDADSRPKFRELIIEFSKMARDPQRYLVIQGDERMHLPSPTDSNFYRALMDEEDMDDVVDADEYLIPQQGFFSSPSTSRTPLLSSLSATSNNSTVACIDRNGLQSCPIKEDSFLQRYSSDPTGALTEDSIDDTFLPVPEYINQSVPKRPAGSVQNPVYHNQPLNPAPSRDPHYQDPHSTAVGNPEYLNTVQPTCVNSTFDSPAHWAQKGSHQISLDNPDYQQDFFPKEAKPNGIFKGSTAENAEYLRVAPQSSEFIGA
T1 sequence (P04626 whole entry): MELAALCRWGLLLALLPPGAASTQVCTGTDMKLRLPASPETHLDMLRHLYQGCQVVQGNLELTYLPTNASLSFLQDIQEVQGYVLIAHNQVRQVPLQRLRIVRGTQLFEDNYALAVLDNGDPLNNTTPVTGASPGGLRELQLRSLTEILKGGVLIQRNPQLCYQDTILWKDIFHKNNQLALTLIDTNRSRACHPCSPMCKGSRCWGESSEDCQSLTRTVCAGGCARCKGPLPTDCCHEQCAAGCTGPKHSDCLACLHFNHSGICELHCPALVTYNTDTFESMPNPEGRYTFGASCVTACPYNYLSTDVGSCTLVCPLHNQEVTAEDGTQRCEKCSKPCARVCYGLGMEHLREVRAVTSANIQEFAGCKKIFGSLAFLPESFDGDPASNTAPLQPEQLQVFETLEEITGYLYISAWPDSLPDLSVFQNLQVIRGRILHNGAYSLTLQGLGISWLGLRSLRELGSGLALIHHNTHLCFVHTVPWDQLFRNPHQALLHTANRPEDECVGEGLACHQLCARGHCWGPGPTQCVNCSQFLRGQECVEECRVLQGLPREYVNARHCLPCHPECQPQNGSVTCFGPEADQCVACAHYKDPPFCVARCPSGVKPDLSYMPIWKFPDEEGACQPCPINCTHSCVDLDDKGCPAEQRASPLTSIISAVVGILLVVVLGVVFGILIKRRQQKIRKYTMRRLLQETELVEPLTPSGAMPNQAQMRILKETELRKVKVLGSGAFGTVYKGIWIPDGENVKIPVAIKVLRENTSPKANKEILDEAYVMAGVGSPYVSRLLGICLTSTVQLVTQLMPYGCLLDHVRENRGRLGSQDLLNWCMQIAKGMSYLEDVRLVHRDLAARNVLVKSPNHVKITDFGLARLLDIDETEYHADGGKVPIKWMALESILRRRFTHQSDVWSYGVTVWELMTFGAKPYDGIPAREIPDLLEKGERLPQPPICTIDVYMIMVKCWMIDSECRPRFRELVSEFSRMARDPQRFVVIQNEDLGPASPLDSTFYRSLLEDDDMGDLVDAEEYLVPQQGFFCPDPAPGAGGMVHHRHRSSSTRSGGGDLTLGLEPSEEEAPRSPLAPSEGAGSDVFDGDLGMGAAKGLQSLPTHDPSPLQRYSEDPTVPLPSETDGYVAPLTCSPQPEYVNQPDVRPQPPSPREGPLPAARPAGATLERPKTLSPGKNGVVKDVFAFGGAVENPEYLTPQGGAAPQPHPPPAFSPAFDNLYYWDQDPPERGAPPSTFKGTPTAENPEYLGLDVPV

Row | Structure (SMILES) | IC50 [1] [nM] | IC50 [2] [nM] | IC50 [3] [nM] | other results
1 | Clc1cc(Nc2ncnc3[nH]nc(OCCN4CCNCC4)c23)ccc1OCc1ccccn1 | 3 | 128 | 8 | 
2 | CC(=O)N1CCN(CCOc2n[nH]c3ncnc(Nc4ccc(OCc5ccccn5)c(Cl)c4)c23)CC1 | < 1 | 129 | 3 | 
3 | Clc1cc(Nc2ncnc3n[nH]c(OCCN4CCCCCO4)c23)ccc1OCc1ccccn1 | < 1 | 148 | < 1 | 
4 | CN1CCN(CCCOc2n[nH]c3ncnc(Nc4ccc(OCc5ccccn5)c(Cl)c4)c23)CC1 | 4 |  | 14 | 
5 | OCCOc1n[nH]c2ncnc(Nc3ccc(OCc4ccccn4)c(Cl)c3)c12 | 4 |  | 16 | 
6 | Clc1cc(Nc2ncnc3[nH]nc(OCCCN4CCOCC4)c23)ccc1OCc1ccccn1 | < 1 | 440 | 16 | 
7 | OC1CCN(CCOc2n[nH]c3ncnc(Nc4ccc(OCc5cccc(F)c5)c(Cl)c4)c23)CC1 | < 1 | 19 | < 1 | 
8 | CN1CCC(Oc2cccc3ncnc(Nc4ccc(OCc5ccccn5)c(Cl)c4)c23)CC1 |  |  |  | IC50 [4]: 41 nM
9 | Clc1cc(Nc2ncnc3[nH]nc(OCCN4CCOCC4)c23)ccc1OCc1ccccn1 | < 1 |  | 1 | 
10 | CNCCOc1n[nH]c2ncnc(Nc3ccc(OCc4ccccn4)c(Cl)c3)c12 | 3 | 1000 | 17 | 

Further lines, with some results ahead:

Row | IC50 [1] [nM] | IC50 [2] [nM] | IC50 [3] [nM] | Structure (SMILES) | other results
11 | 6 |  |  | OC1CCN(CCCOc2n[nH]c3ncnc(Nc4ccc(OCc5ccccn5)c(Cl)c4)c23)CC1 | 
12 | 5 |  | 1430 | Cc1ccc(Oc2ccc(Nc3ncnc4[nH]nc(OCCN5CCC(O)CC5)c34)cc2F)cn1 | 
13 | 3 | 613 | 13 | COc1cc(Nc2ncnc3[nH]nc(OCCN4CCC(O)CC4)c23)ccc1OCc1cccc(F)c1 | 
14 | 11 | 415 |  | Cc1ccc(Oc2ccc(Nc3ncnc4[nH]nc(OCCN5CCC(O)CC5)c34)cc2C)cn1 | 
15 | 1 | 166 | 5 | CN1CCN(CCOc2n[nH]c3ncnc(Nc4ccc(OCc5ccccn5)c(Cl)c4)c23)CC1 | IC50 [4]: 17 nM; IC50 (KB): 220 nM; fraction unbound [5]: 0.1; Vd [6]: 4.5 L/kg; clearance [7]: 41 mL/min/kg; half-life [8]: 1.4 h; bioavailability [9]: 23%; fraction unbound [10]: 0.21; Vd [11]: 9 L/kg; clearance [12]: 46 mL/min/kg; half-life [13]: 2.4 h; bioavailability [14]: 30%; Papp A→B (P-gp): 9.5 ×10⁻⁶ cm/s
16 | < 1 | 184 | 7 | Cc1ccc(Oc2ccc(Nc3ncnc4[nH]nc(OCCN5CCC(O)CC5)c34)cc2Cl)cn1 | 
17 | 5 | 135 | 13 | OC1CCN(CCOc2n[nH]c3ncnc(Nc4ccc(OCc5ccccn5)c(Cl)c4)c23)CC1 | 
18 | 5 | 695 | 18 | Cc1cc(Nc2ncnc3[nH]nc(OCCN4CCC(O)CC4)c23)ccc1OCc1ccccn1 | 
19 | < 1 | 107 | < 1 | Cc1cc(Nc2ncnc3[nH]nc(OCCN4CCC(O)CC4)c23)ccc1OCc1cccc(F)c1 | 
20 | 17 | 1480 |  | COc1cc(Nc2ncnc3[nH]nc(OCCN4CCC(O)CC4)c23)ccc1OCc1ccccn1 | 
21 | 4 | 82 | 28 | COC1CCN(CCOc2n[nH]c3ncnc(Nc4ccc(OCc5ccccn5)c(Cl)c4)c23)CC1 | 
